Drawing on patent US9938292B2 (GUANGDONG ZHONGSHENG PHARMACEUTICAL CO., LTD, priority 2014, dated 2018), this text covers IC50 for 38 compounds.

As usually defined, the IC50 is the point on the concentration scale where inhibition reaches its midpoint.

The experiment relates to Hedgehog signaling pathway. Put plainly: Gli-Luc luciferase reporter gene assay in C3H10T1/2/Gli-Luc cells under Shh-N stimulation. It counts as cell-based. The note with it: Mus musculus, C3H 10T1/2, 24 h, luciferase RLU, read-out: biological activity: IC50 of the inhibitory activities of compounds on the hedgehog pathway. The text has this: The luciferase (Gli-Luc) reporter gene with Gli response element was transfected into C3H10T1/2 cells, under Shh-N stimulation conditions, determine the Hedgehog signaling pathway inhibitors through the detection of gene expression in cell activity report. In this study, we evaluated the inhibitory effects of compounds on Hedgehog signaling pathway in the IC50 value of the compound as an index.
Cell lines: C3H10T1/2/Gli-Luc stable cell line • C3H10T1/2/Gli-Luc Cell culture medium (DMEM/high glucose HyClone, #SH30022.01B; 10% serum Hyclone, #SV30087; 0.4% Hygromycin B Roche, #13398200) • 0.25% Trypsin-EDTA (Gibco, #25200)
Shh-N, HEK293/SHH-N stable cell culture supernatant
Inoculate the logarithmic growth phase of C3H10T1/2/Gli-Luc cells into a 96-well culture plate with 20000 cells per well, cells were cultured in a 37° C., 5% CO2 incubator overnight. The next day, the compounds were diluted in the following ways: the positive compound GDC0449 (1 mM) and the compounds (1 mM) to be measured were serially diluted to 7 concentrations by DMSO according to 1:3 and 1:10 respectively, the eighth is for DMSO control, and then diluted with fresh medium 100 times. The medium of the cells cultured overnight was removed, 80 μL fresh culture medium was added per well, then 20 μL gradiently diluted positive compound and compounds to be measured and 100 μL 30 nM Shh-N containing conditioned medium were added, each concentration repeated 2 wells, at the same time, positive and negative reference well were set (i.e. Shh Ctrl: 80 μL fresh medium+20 μL 1% DMSO containing medium+100 μL 30 nM Shh-N containing conditioned medium; Unstimulated Ctrl: 180 μL fresh medium+20 μL 1% DMSO containing medium), cells were cultured in the incubator for further 24 h.
Intracellular luciferase activity detection: take the cells out of 96-well plate, discard the culture medium, the cells were washed with PBS twice, then each well added with 20 μL lysate (Promega E1531), oscillate pyrolysis at room temperature for 30 min. 5 μL cell lysates were transferred to 384-well plate (Greiner 781074), then each well was added with 25 μL luciferase reaction liquid (Promega E1501), after rapid mixed, immediately placed into the VarioSkan Flash multi-function reading instrument to read the relative light units (RLU) value.
Data analysis: using Prism's GraphPad 5 for data analysis. RLU reading to the logarithmic mapping of compound concentration on behalf of luciferase activity, and then curve fitting using the following equation to give IC50 value, Y (RLU)=minimum+(maximum−minimum)/(1+10^(log of compound concentration−Log IC50)).

Molecules are shown by their SMILES.

On to `Cc1cn(-c2ccc(N3C[C@@H](C)O[C@@H](C)C3)cc2)c(=O)c2cccc(-c3ccc(C4CC4)cc3)c12` [Embodiment 69, 5-(4-cyclopropylphenyl)-2-(4-((2R,6S)-2,6-dimethylmorpholino)phenyl)-4-methylisoquinolin-1(2H)-one], for which the IC50 was in the range of 0.5 to 1 µM.

In the case of `C[C@@H]1CN(c2ccc(-n3ccc4c(-c5ccc(C#N)cc5)cccc4c3=O)cn2)C[C@H](C)O1` [Embodiment 70, 4-(2-(6-(2,6-dimethylmorpholino-4-yl)pyridin-3-yl)-1-oxo-1,2-dihydroisoquinolin-5-yl)benzonitrile], the IC50 was 0.5 to 1 µM.

Consider `C[C@@H]1CN(c2ccc(-n3ccc4c(-c5ccc(C(F)(F)F)cc5)cccc4c3=O)cn2)C[C@H](C)O1` [Embodiment 71], for which the half-maximal inhibitory concentration (IC50) is 1 to 5 µM.

`C[C@@H]1CN(c2ccc(-n3ccc4c(-c5ccc(OC(F)(F)F)cc5)cccc4c3=O)cn2)C[C@H](C)O1` [Embodiment 72]: the IC50 fell in the range of 1 to 5 µM.

Turning to `C[C@@H]1CN(c2ccc(-n3ccc4c(-c5ccc(C#N)cc5)cccc4c3=O)cc2)C[C@H](C)O1` [Embodiment 73], the IC50 was 0.5 to 1 µM.

As to `C[C@@H]1CN(c2ccc(-n3ccc4c(-c5ccc(C(F)(F)F)cc5)cccc4c3=O)cc2)C[C@H](C)O1` [Embodiment 74], the concentration for half-maximal inhibition (IC50) was in the range of 1 to 5 µM.

With `C[C@@H]1CN(c2ccc(-n3ccc4c(-c5ccc(OC(F)(F)F)cc5)cccc4c3=O)cc2)C[C@H](C)O1` [Embodiment 75], the IC50 lay in the range of 1 to 5 µM.

With `C[C@@H]1CN(c2ccc(-n3cc(Cl)c4c(-c5ccc(C#N)cc5)cccc4c3=O)cc2Cl)C[C@H](C)O1` [Embodiment 76, 4-(4-chloro-2-(3-chloro-4-((2S,6R)-2,6-dimethylmorpholino)phenyl)-1-oxo-1,2-dihydroisoquinolin-5-yl)benzonitrile], the IC50 lay within 0.1 to 0.5 µM.

Regarding `C[C@@H]1CN(c2ccc(-n3ccc4c(-c5ccc(C#N)cc5)cccc4c3=O)cc2Cl)C[C@H](C)O1` [Embodiment 77, 4-(2-(3-chloro-4-((2S,6R)-2,6-dimethylmorpholino)phenyl)-1-oxo-1,2-dihydroisoquinolin-5-yl)benzonitrile], the IC50 fell in the range of 0.5 to 1 µM.

Regarding `C[C@@H]1CN(c2ccc(-n3ccc4c(-c5ccc(C#N)cc5)cccc4c3=O)cc2Br)C[C@H](C)O1` [Embodiment 79, 4-(2-(3-bromo-4-((2S,6R)-2,6-dimethylmorpholino)phenyl)-1-oxo-1,2-dihydroisoquinolin-5-yl)benzonitrile], the IC50 is 0.5 to 1 µM.

Turning to `C[C@@H]1CN(c2ccc(-n3ccc4c(-c5ccc(C#N)cc5)cccc4c3=O)cc2C2CC2)C[C@H](C)O1` [Embodiment 80, 4-(2-(3-cyclopropyl-4-((2S,6R)-2,6-dimethylmorpholino)phenyl)-1-oxo-1,2-dihydroisoquinolin-5-yl)benzonitrile], the IC50 lay in the range of 1 to 5 µM.

As for `Cc1cn(-c2ccc(N3C[C@@H](C)O[C@@H](C)C3)cc2)c(=O)c2ccnc(-c3ccc(C#N)cc3)c12` [Embodiment 81, 4-(6-(4-((2S,6R)-2,6-dimethylmorpholino)phenyl)-8-methyl-5-oxo-5,6-dihydro-2,6-naphthyridin-1-yl)benzonitrile], the IC50 was in the range of 1 to 5 µM.

Turning to `Cc1cn(-c2ccc(N3C[C@@H](C)O[C@@H](C)C3)cc2)c(=O)c2ccnc(-c3ccc(C(F)(F)F)cc3)c12` [Embodiment 82], the IC50 lay in the range of 1 to 5 µM.

On to `Cc1cn(-c2ccc(N3C[C@@H](C)O[C@@H](C)C3)cc2)c(=O)c2ccnc(-c3ccc(OC(F)(F)F)cc3)c12` [Embodiment 83], for which the IC50 was 1 to 5 µM.

Consider `Cc1cn(-c2ccc(N3C[C@@H](C)O[C@@H](C)C3)cc2)c(=O)c2ccnc(-c3ccc(C#N)s3)c12` [Embodiment 84], for which the IC50 lay in the range of 1 to 5 µM.

For the compound `Cc1cn(-c2ccc(N3C[C@@H](C)O[C@@H](C)C3)cc2)c(=O)c2nccc(-c3ccc(C#N)cc3)c12` [Embodiment 85, 4-(7-(4-((2S,6R)-2,6-dimethylmorpholino)phenyl)-5-methyl-8-oxo-7,8-dihydro-1,7-naphthyridin-4-yl)benzonitrile], the IC50 was 0.5 to 1 µM.

With `Cc1cn(-c2ccc(N3C[C@@H](C)O[C@@H](C)C3)cc2)c(=O)c2cncc(-c3ccc(C#N)cc3)c12` [Embodiment 86, 4-(7-(4-((2S,6R)-2,6-dimethylmorpholino)phenyl)-5-methyl-8-oxo-7,8-dihydro-2,7-naphthyridin-4-yl)benzonitrile], the 50% inhibitory concentration (IC50) is 0.5 to 1 µM.

For the compound `CC1CN(c2ccc(N3C[C@@H](C)O[C@@H](C)C3)cc2)C(=O)c2cccc(-c3ccc(C#N)cc3)c21` (stereo partly drawn) [Embodiment 87, 4-(2-(4-((2S,6R)-2,6-dimethylmorpholino)phenyl)-4-methyl-1-oxo-1,2,3,4-tetrahydroisoquinolin-5-yl)benzonitrile], the IC50 lay in the range of 0.1 to 0.5 µM.

Consider `COc1c(-c2ccc(N3C[C@@H](C)O[C@@H](C)C3)cc2)cnc2c(-c3ccc(C#N)cc3)cccc12` [Embodiment 88, 4-(3-(4-((2S,6R)-2,6-dimethylmorpholino)phenyl)-4-methoxyquinolin-8-yl) benzonitrile], for which the IC50 was ≤ 0.05 µM.

For the compound `COc1c(-c2ccc(N3C[C@@H](C)O[C@@H](C)C3)cc2)cnc2c(-c3ccc(C(F)(F)F)cc3)cccc12` [Embodiment 89, (2R,6S)-4-(4-(4-methoxy-8-(4-(trifluoromethyl)phenyl)quinolin-3-yl)phenyl)-2,6-dimethylmorpholine], the IC50 is ≤ 0.05 µM.

Regarding `COc1c(-c2ccc(N3C[C@@H](C)O[C@@H](C)C3)cc2)cnc2c(-c3ccc(OC(F)(F)F)cc3)cccc12` [Embodiment 91], the IC50 is ≤ 0.05 µM.

Take `COc1c(-c2ccc(N3C[C@@H](C)O[C@@H](C)C3)cc2)cnc2c(-c3ccc(F)nc3)cccc12` [Embodiment 93]: the IC50 is ≤ 0.05 µM.

Turning to `COc1c(-c2ccc(N3C[C@@H](C)O[C@@H](C)C3)cc2)cnc2c(-c3ccc(C)nc3)cccc12` [Embodiment 94], the IC50 is ≤ 0.05 µM.

For `COc1c(-c2ccc(N3C[C@@H](C)O[C@@H](C)C3)cc2)cnc2c(-c3ccc(Cl)nc3)cccc12` [Embodiment 95], the half-maximal inhibitory concentration (IC50) was ≤ 0.05 µM.

On to `COc1c(-c2ccc(N3C[C@@H](C)O[C@@H](C)C3)cc2)cnc2c(-c3ccc(S(=O)(=O)N4CCOCC4)cc3)cccc12` [Embodiment 96], for which the IC50 is 0.1 to 0.5 µM.

Consider `COc1c(-c2ccc(N3C[C@@H](C)O[C@@H](C)C3)cc2)cnc2c(-c3ccncc3)cccc12` [Embodiment 97], for which the IC50 lay within 0.1 to 0.5 µM.

For the compound `COc1c(-c2ccc(N3C[C@@H](C)O[C@@H](C)C3)cc2)cnc2c(-c3ccc(Cl)c(Cl)c3)cccc12` [Embodiment 98], the IC50 is ≤ 0.05 µM.

`COc1ccc(-c2cccc3c(OC)c(-c4ccc(N5C[C@@H](C)O[C@@H](C)C5)cc4)cnc23)cn1` [Embodiment 100]: the IC50 was 0.1 to 0.5 µM.

As to `CNC(=O)c1ccc(-c2cccc3c(OC)c(-c4ccc(N5C[C@@H](C)O[C@@H](C)C5)cc4)cnc23)cn1` [Embodiment 101], the half-maximal inhibitory concentration (IC50) was in the range of 0.1 to 0.5 µM.

As to `COc1c(-c2ccc(N3C[C@@H](C)O[C@@H](C)C3)cc2)cnc2c(-c3ccc(C#N)c(F)c3)cccc12` [Embodiment 102], the IC50 fell in the range of 0.05 to 0.1 µM.

In the case of `COc1c(-c2ccc(N3C[C@@H](C)O[C@@H](C)C3)cc2)cnc2c(-c3ccc(S(C)(=O)=O)cc3Cl)cccc12` [Embodiment 103], the IC50 lay in the range of 0.05 to 0.1 µM.

Take `COc1c(-c2ccc(N3C[C@@H](C)O[C@@H](C)C3)cc2)cnc2c(-c3ccc(C#N)cc3F)cccc12` [Embodiment 104]: the IC50 was ≤ 0.05 µM.

Consider `COc1c(-c2ccc(N3C[C@@H](C)O[C@@H](C)C3)cc2)cnc2c(-c3ccc(C#N)cc3C)cccc12` [Embodiment 105], for which the IC50 was ≤ 0.05 µM.

Regarding `COc1c(-c2ccc(N3C[C@@H](C)O[C@@H](C)C3)cc2)cnc2c(-c3ccc(C(F)(F)F)nc3)cccc12` [Embodiment 106], the concentration for half-maximal inhibition (IC50) was in the range of 0.05 to 0.1 µM.

For `COc1c(-c2ccc(N3C[C@@H](C)O[C@@H](C)C3)cc2)cnc2c(-c3cnn(C)c3)cccc12` [Embodiment 108], the IC50 was 0.1 to 0.5 µM.

As for `COc1c(-c2ccc(N3C[C@@H](C)O[C@@H](C)C3)cc2)cnc2c(-c3ccc4c(c3)OCO4)cccc12` [Embodiment 109], the IC50 was in the range of 0.05 to 0.1 µM.

Consider `COc1c(-c2ccc(N3C[C@@H](C)O[C@@H](C)C3)cc2)cnc2c(-c3cnc(N(C)C)nc3)cccc12` [Embodiment 110], for which the IC50 lay in the range of 0.1 to 0.5 µM.

Regarding `COc1c(-c2ccc(N3C[C@@H](C)O[C@@H](C)C3)cc2)cnc2c(-c3ccc(-c4ncc[nH]4)cc3)cccc12` [Embodiment 111], the IC50 lay within 0.1 to 0.5 µM.
